The record followed here is patent US20250144127A1, “LONG-CHAIN COMPOUND AND USE THEREOF” (Burgeon Therapeutics Co., Ltd., priority 2021, published 2025).

The structures appear in SMILES notation.

Data set [1] in a line: Oral pharmacokinetics in ICR mice. In kind it is in vivo, mouse. As to the method: Dosing regimen: 6 normal ICR mice, male, were divided into 2 groups (n=3), one group was orally given the positive control ETC-1002, and one group was orally given the tested compound A3, both administered at a dose of 30 mg/kg; blood was taken from the eye orbits at different time points before and after the administration of the drug, and the plasma drug concentration was detected.

The test system of another data set is golden hamster. Briefly: High-fat and high-cholesterol diet-induced hyperlipidemia model of golden hamster. Format: in vivo. The conditions noted are these: 1 time/day, 7 days, vs control group. From the text:
Dosing regimen: The hyperlipidemia model of golden hamster is recognized as one of the ideal animal models for studying hyperlipidemia drug therapy (pharmacodynamic evaluation). In order to preliminarily investigate the existence of potential regulatory effects of the candidate compounds on hepatic lipid metabolism homeostasis, the high-fat and high-cholesterol diet-induced hyperlipidemia model of golden hamster was utilized for preliminary pharmacodynamic evaluation. The specific protocol was as follows. 56 golden hamsters, males, were modeled on high-fat and high-cholesterol diet (Research diet, item number C11953) for two weeks, and 8 golden hamsters were reserved as blank control group. Subsequently, group administration (7 groups, n=8) was performed, i.e., model control group, positive control ETC-1002 30 mg/kg group, compound A3 10 mg/kg and 30 mg/kg group, compound A4 10 mg/kg and 30 mg/kg group, and blank control group. The compounds in each group were configured with saline (0.9% NaCl) and administered at a frequency of 1 time/day for a 7-day dosing cycle.
Indicator test: The body weight and food intake of golden hamsters were closely monitored during the administration period. After 7 days of administration, blood was collected from the orbital region of each group (starved overnight for about 16 hours), centrifuged to obtain serum, and stored in cryopreservation, and then total cholesterol and LDL cholesterol were detected in the serum. The relative amount of the relevant indexes was calculated as follows: Relative amount (100%)=the amount in the administered group/the amount in the model control group*100%.

Setting [2] is: male, mouse, ICR mice, oral, 30 mg/kg, plasma.

By AUC(0-inf) is commonly meant the area under the concentration-time curve extrapolated to infinity. A higher AUC(0-inf) goes with high exposure. As usually defined, the AUC(0-t) is the area under the concentration-time curve up to a stated or last time point. A word on the Cmax: it is the highest concentration seen after dosing. As usually defined, the half-life is the time needed for the level to fall by half in the phase considered. Read a low half-life as rapid decline. In data set [1] (setting [2]), `CC(C)(CCCC/C=C/CCCCCC(C)(C)C(=O)O)C(=O)O` [Compound A3] had an AUC(0-inf) of 74200 ng·h/mL, an AUC(0-t) of 63700 ng·h/mL, a Cmax of 13400 ng/mL and a half-life of 5.65 h. Besides, the MRT inf in data set [1] (male, mouse, ICR mice, oral, 30 mg/kg, plasma, read-out: MRT0-∞) stood at 8.01 h. For the same compound, the “plasma exposure relative to Bempedoic acid” value in data set [1] (same oral dose) is “more than 4 times”. Moreover, in the data set with golden hamster (10 mg/kg), the “serum LDL cholesterol” value is given as “significantly reduce” and the serum total cholesterol result is on record as “significantly reduce”. Moreover, in the data set with golden hamster (30 mg/kg), the “serum LDL cholesterol” value is listed as “significantly reduce” and the serum total cholesterol result is recorded as “significantly reduce”.
